Source: patent US12371436B2, “Substituted benzodiazoliums as ENaC inhibitors” (ENTERPRISE THERAPEUTICS LIMITED, priority 2016, dated 2025)

Target: T1, ENaC (Homo sapiens, UniProt P37088+P51168+P51170)
T1 construct: host or cells: primary human bronchial epithelial cells (HBECs) differentiated at air-liquid interface
T1 sequence (P37088 1-669): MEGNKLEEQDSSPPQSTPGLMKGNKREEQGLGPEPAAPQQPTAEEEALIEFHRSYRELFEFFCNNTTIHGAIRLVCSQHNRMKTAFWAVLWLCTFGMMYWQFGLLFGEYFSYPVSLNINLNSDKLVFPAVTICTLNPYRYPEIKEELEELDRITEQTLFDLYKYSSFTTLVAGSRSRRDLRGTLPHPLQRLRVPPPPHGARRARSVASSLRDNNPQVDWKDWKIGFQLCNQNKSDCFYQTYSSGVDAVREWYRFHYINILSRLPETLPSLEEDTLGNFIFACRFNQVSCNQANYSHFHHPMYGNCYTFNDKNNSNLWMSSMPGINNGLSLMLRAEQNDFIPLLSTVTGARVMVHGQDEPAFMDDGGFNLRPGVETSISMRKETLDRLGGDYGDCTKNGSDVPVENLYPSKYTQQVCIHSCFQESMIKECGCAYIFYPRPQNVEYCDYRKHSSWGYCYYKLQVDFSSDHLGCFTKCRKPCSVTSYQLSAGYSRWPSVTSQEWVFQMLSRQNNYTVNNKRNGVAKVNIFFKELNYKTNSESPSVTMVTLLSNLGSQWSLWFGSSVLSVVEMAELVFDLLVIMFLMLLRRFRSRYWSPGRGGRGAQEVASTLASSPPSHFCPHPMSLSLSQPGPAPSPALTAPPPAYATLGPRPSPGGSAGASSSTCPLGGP
T1 sequence (P51168 1-640): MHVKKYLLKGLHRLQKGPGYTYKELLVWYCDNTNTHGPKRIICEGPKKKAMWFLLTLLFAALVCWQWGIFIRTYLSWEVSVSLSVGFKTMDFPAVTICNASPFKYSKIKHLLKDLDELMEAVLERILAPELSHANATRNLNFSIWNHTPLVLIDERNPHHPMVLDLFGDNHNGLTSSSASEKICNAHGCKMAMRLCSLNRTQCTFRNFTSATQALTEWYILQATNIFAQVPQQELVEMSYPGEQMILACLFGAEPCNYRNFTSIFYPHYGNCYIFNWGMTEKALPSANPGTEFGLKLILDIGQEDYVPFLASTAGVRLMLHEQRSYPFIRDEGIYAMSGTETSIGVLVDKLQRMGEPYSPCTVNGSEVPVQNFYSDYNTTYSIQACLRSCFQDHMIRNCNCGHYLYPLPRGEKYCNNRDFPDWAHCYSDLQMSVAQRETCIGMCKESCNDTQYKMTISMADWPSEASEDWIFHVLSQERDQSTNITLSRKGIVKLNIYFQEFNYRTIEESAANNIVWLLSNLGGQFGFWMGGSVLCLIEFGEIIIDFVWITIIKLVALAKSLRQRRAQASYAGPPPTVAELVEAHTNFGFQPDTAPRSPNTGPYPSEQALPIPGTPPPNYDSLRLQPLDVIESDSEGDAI
T1 sequence (P51170 1-649): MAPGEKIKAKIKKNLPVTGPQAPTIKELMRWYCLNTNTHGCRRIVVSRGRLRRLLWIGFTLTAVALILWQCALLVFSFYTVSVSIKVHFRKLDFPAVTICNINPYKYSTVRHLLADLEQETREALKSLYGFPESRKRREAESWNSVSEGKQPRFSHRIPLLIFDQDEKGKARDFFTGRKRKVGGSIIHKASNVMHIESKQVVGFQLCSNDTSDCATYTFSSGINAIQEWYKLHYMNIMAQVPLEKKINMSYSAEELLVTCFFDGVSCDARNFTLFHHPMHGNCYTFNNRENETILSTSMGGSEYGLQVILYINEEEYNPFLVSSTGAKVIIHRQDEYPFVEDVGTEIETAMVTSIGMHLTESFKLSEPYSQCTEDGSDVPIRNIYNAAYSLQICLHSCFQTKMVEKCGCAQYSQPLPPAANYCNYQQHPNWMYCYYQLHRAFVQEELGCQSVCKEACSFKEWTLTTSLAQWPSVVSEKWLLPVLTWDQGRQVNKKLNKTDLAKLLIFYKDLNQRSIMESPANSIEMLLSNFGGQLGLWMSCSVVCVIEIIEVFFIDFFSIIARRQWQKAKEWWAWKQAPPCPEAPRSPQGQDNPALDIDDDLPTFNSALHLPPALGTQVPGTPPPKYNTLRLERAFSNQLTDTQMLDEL
Experiment: Short circuit current assay to determine ENaC blocker potency in human bronchial epithelial cells
Assay type: cell-based
Conditions: 50% inhibition of total amiloride-sensitive ISC, apical addition, read-out: Averages.ENaC IC50 (nM) Avg
Description: Example 68—Short circuit current assay to determine ENaC blocker potency in human bronchial epithelial cells
Human bronchial epithelial cells (HBECs) (Lonza, UK) were cultured using a modification of the method described by Coote et al, (2008). Cells were seeded into plastic T-75 flasks and grown in Bronchial Epithelial Cell Growth Medium (BEGM) (Lonza, UK) supplemented with bovine pituitary extract (52 ng/mL), hydrocortisone (0.5 μg/mL), human recombinant Epidermal Growth Factor (0.5 ng/mL), epinephrine (0.5 ng/mL), transferrin (10 ng/mL), insulin (5 ng/mL), retinoic acid (0.1 ng/mL), triiodothyronine (6.5 ng/mL), gentamycin (50 μg/mL) and amphotericin-B (50 ng/mL). Medium was changed every 48 hours until cells were 90% confluent. Cells were then passaged and seeded (8.25×10^5 cells/insert) onto polycarbonate Snapwell™ inserts (Costar, UK) in differentiation media containing 50% DMEM in BGEM with the same supplements as above but without triiodothyronine and a final retinoic acid concentration of 50 nM (all-trans retinoic acid; Sigma-Aldrich, UK). Cells were maintained submerged for the first 7 days in culture after which time they were exposed to an apical air interface for the remainder of the culture period. From the first day of establishment of an ALI, HBEC were fed with a DMEM:HAMS F-12 (1:1) media containing 2% Ultroser G (Pall BioSepra, France) with gentamycin (50 μg/mL) and amphotericin B (50 ng/mL). Cells were used for short-circuit current assay between days 14-21 after the establishment of the ALI. At all stages of culture, cells were maintained at 37° C. in 5% CO2 in an air incubator.
Short-Circuit Current (ISC) Measurements
Snapwell inserts were mounted in Costar Vertical Diffusion Chambers (Costar, UK) and were bathed with continuously gassed Ringer solution (5% CO2 in O2; pH 7.4) maintained at 37° C. containing (in mM): 120 NaCl, 25 NaHCO3, 3.3 KH2PO4, 0.8 K2HPO4, 1.2 CaCl2, 1.2 MgCl2 and 10 glucose. The solution osmolarity was always between 280-300 mOsm/kg H2O for all physiological salt solutions used. Cells were voltage clamped to 0 mV (model EVC4000, WPI). Transepithelial resistance (RT) was measured by applying a 2 mV pulse at 30 s intervals and calculating RT by Ohm's law. Data were recorded using a PowerLab workstation (ADlnstruments, UK).
ENaC blocker compounds were added to the apical chamber from a 1000-fold stock solution (prepared in DMSO) to achieve a cumulative concentration response in terms of the inhibition of the basal ISC. At the completion of the concentration response, a supra-maximal concentration of amiloride (10 μM) was added. The concentration of test compound that induced a 50% inhibition of the total amiloride-sensitive ISC (IC50) was calculated using GraphPad Prism v6.05. The results are presented in Table 2, from which it can be seen that the compounds of the present invention have ENaC inhibiting activity.

| IC50 | SMILES |
| --- | --- |
| 5 nM | CCn1c(CNC(=O)c2nc3cc[nH]c3nc2N)[n+](CC)c2ccc(CCCN)cc21 [Example 29, 2-[({3-amino-5H-pyrrolo[2,3-b]pyrazin-2-yl}formamido)methyl]-6-(3-aminopropyl)-1,3-diethyl-1H-1,3-benzodiazol-3-ium] |
| 6 nM | CCn1c(CNC(=O)c2nc3cc[nH]c3nc2N)[n+](CC)c2ccc(C3CCNCC3)cc21 [Example 30, 2-[({3-amino-5H-pyrrolo[2,3-b]pyrazin-2-yl}formamido)methyl]-1,3-diethyl-6-(piperidin-4-yl)-1H-1,3-benzodiazol-3-ium] |
| 1 nM | CCn1c(CNC(=O)c2nc3cc[nH]c3nc2N)[n+](CC)c2ccc(-c3cnn(C4CCNCC4)c3)cc21 [Example 31, 2-[({3-amino-5H-pyrrolo[2,3-b]pyrazin-2-yl}formamido)methyl]-1,3-diethyl-6-[1-(piperidin-4-yl)-1H-pyrazol-4-yl]-1H-1,3-benzodiazol-3-ium] |
| 3 nM | CCn1c(CNC(=O)c2nc3cc[nH]c3nc2N)[n+](CC)c2ccc(OCCNC(=N)N)cc21 [Example 32, 2-[({3-amino-5H-pyrrolo[2,3-b]pyrazin-2-yl}formamido)methyl]-6-(2-carbamimidamidoethoxy)-1,3-diethyl-1H-1,3-benzodiazol-3-ium] |
| 3 nM | CCn1c(CNC(=O)c2nc3cc[nH]c3nc2N)[n+](CC)c2ccc(CCCNC(=N)N)cc21 [Example 33, 2-[({3-amino-5H-pyrrolo[2,3-b]pyrazin-2-yl}formamido)methyl]-6-(3-carbamimidamidopropyl)-1,3-diethyl-1H-1,3-benzodiazol-3-ium] |
| 160 nM | CCn1c(CNC(=O)c2nc3cc[nH]c3nc2N)[n+](CC)c2ccc(C(=O)O)cc21 [Example 34, 2-[({3-amino-5H-pyrrolo[2,3-b]pyrazin-2-yl}formamido)methyl]-6-carboxy-1,3-diethyl-1H-1,3-benzodiazol-3-ium] |
| 15 nM | CCn1c(CNC(=O)c2nc3cc[nH]c3nc2N)[n+](CC)c2ccc(C(=O)NCCCN)cc21 [Example 39, 2-[({3-amino-5H-pyrrolo[2,3-b]pyrazin-2-yl}formamido)methyl]-6-[(3-aminopropyl)carbamoyl]-1,3-diethyl-1H-1,3-benzodiazol-3-ium] |
| 7 nM | CCn1c(CNC(=O)c2nc3cc[nH]c3nc2N)[n+](CC)c2ccc(C(=O)NC3CCNCC3)cc21 [Example 40, 2-[({3-amino-5H-pyrrolo[2,3-b]pyrazin-2-yl}formamido)methyl]-1,3-diethyl-6-[(piperidin-4-yl)carbamoyl]-1H-1,3-benzodiazol-3-ium] |

| SMILES | IC50 |
| --- | --- |
| CCn1c(CNC(=O)c2nc3cc[nH]c3nc2N)[n+](CC)c2ccc(C(=O)NCCCNC(=O)OC(C)(C)C)cc21 [Example 35, 2-[({3-amino-5H-pyrrolo[2,3-b]pyrazin-2-yl}formamido)methyl]-6-[(3-{[(tert-butoxy)carbonyl]amino}propyl)carbamoyl]-1,3-diethyl-1H-1,3-benzodiazol-3-ium formic acid] | 5 nM |
| CCn1c(CNC(=O)c2nc3cc[nH]c3nc2N)[n+](CC)c2ccc(C(=O)NC3CCN(C(=O)OC(C)(C)C)CC3)cc21 [Example 36, 2-[({3-amino-5H-pyrrolo[2,3-b]pyrazin-2-yl}formamido)methyl]-6-({1-[(tert-butoxy)carbonyl]piperidin-4-yl}carbamoyl)-1,3-diethyl-1H-1,3-benzodiazol-3-ium] | 3 nM |
| CCn1c(CNC(=O)c2nc3cc[nH]c3nc2N)[n+](CC)c2ccc(C(=O)NCCN3CCC(NC(=O)OC(C)(C)C)CC3)cc21 [Example 38, 2-[({3-amino-5H-pyrrolo[2,3-b]pyrazin-2-yl}formamido)methyl]-6-{[2-(4-{[(tert-butoxy)carbonyl]amino}piperidin-1-yl)ethyl]carbamoyl}-1,3-diethyl-1H-1,3-benzodiazol-3-ium] | 9 nM |
